Laboratory results published in ChEMBL document CHEMBL1201862, “PubChem BioAssay data set” (2004).
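Grown in 96-well plates, cells were treated for 48 hours with each compound at five concentrations. Insufficient inhibition: endpoint recorded as highest concentration tested. GI50 marks 50% less growth.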 Activity calls are given as the source filed them. No stated cut-off is given here; in the data, active = GI50 up to about 1.1 µM and inactive = higher.

How the values were obtained:
Assay in all cases: DTP human tumour cell line panel, 48 h
786-0 = test system: 786-0
A498 = test system: A498
A549 = test system: A549
ACHN = test system: ACHN
BT-549 = test system: BT-549
CAKI-1 = test system: CAKI-1
CCRF-CEM = test system: CCRF-CEM
EKVX = test system: EKVX
HCC 2998 = test system: HCC 2998
HCT-116 = test system: HCT-116
HCT-15 = test system: HCT-15
HOP-62 = test system: HOP-62
HOP-92 = test system: HOP-92
HT-29 = test system: HT-29
Hs-578T = test system: Hs-578T
IGROV-1 = test system: IGROV-1
K562 = test system: K562
KM12 = test system: KM12
LOX IMVI = test system: LOX IMVI
M14 = test system: M14
MCF7 = test system: MCF7
MDA-MB-231 = test system: MDA-MB-231
MDA-MB-435 = test system: MDA-MB-435
MDA-N = test system: MDA-N
MOLT-4 = test system: MOLT-4
Malme-3M = test system: Malme-3M
NCI-H226 = test system: NCI-H226
NCI-H23 = test system: NCI-H23
NCI-H460 = test system: NCI-H460
NCI-H522 = test system: NCI-H522
NCI/ADR-RES = test system: NCI/ADR-RES
OVCAR-3 = test system: OVCAR-3
OVCAR-4 = test system: OVCAR-4
OVCAR-5 = test system: OVCAR-5
OVCAR-8 = test system: OVCAR-8
PC-3 = test system: PC-3
RPMI-8226 = test system: RPMI-8226
RXF 393 = test system: RXF 393
SF-268 = test system: SF-268
SF-295 = test system: SF-295
SF-539 = test system: SF-539
SK-MEL-28 = test system: SK-MEL-28
SK-MEL-2 = test system: SK-MEL-2
SK-MEL-5 = test system: SK-MEL-5
SK-OV-3 = test system: SK-OV-3
SN12C = test system: SN12C
SNB-19 = test system: SNB-19
SNB-75 = test system: SNB-75
SR = test system: SR
SW-620 = test system: SW-620
T47D = test system: T47D
TK-10 = test system: TK-10
U-251 = test system: U-251
UACC-257 = test system: UACC-257
UACC-62 = test system: UACC-62
UO-31 = test system: UO-31

Measured: GI50

NC(=O)NNc1nc2ccccc2c(=O)n1NC(=O)C(=O)Nc1ccc(Cl)cc1Cl
inactive: 786-0 > 100 µM | A498 > 100 µM | A549 > 100 µM | ACHN > 100 µM | BT-549 > 100 µM | CAKI-1 > 100 µM | CCRF-CEM > 100 µM | EKVX 66.8 µM | HCC 2998 > 100 µM | HCT-116 > 100 µM | HOP-62 > 100 µM | HOP-92 > 100 µM | HT-29 > 100 µM | Hs-578T > 100 µM | IGROV-1 64 µM | K562 > 100 µM | KM12 > 100 µM | LOX IMVI > 100 µM | M14 > 100 µM | MCF7 > 100 µM | MDA-MB-231 > 100 µM | MDA-MB-435 > 100 µM | MDA-N > 100 µM | MOLT-4 > 100 µM | Malme-3M > 100 µM | NCI-H226 > 100 µM | NCI-H23 > 100 µM | NCI-H460 > 100 µM | NCI-H522 > 100 µM | NCI/ADR-RES > 100 µM | OVCAR-3 > 100 µM | OVCAR-4 > 100 µM | OVCAR-5 > 100 µM | OVCAR-8 > 100 µM | PC-3 > 100 µM | RPMI-8226 > 100 µM | RXF 393 > 100 µM | SF-268 > 100 µM | SF-295 > 100 µM | SF-539 > 100 µM | SK-MEL-28 > 100 µM | SK-MEL-2 > 100 µM | SK-MEL-5 > 100 µM | SK-OV-3 > 100 µM | SN12C > 100 µM | SNB-19 81.1 µM | SNB-75 > 100 µM | SR 65.2 µM | SW-620 > 100 µM | T47D > 100 µM | TK-10 > 100 µM | U-251 > 100 µM | UACC-257 > 100 µM | UACC-62 > 100 µM | UO-31 > 100 µM
> 100 µM: HCT-15
